Target: T1, APOL1 (Homo sapiens, UniProt O14791)
T1 sequence (O14791 1-398 S342G/I384M): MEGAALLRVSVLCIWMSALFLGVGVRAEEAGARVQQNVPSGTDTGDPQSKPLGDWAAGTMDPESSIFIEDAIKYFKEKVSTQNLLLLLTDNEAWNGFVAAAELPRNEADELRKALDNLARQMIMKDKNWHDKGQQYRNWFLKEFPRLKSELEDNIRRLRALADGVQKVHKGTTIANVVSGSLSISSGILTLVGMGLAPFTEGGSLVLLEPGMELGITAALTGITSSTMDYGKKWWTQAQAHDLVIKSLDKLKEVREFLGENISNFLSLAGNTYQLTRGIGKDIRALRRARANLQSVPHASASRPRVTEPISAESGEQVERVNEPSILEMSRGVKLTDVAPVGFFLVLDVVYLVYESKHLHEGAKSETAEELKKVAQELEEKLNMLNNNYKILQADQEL
Experiment: Multi-Tox Assay (MultiTox-Fluor Multiplex Cytotoxicity Assay in tet-inducible APOL1 T-REx-HEK293 cells; Table 46 does not say which APOL1 variant G0/G1/G2)
Format: cell-based
Details: APOL1 variant not given; for IC50: IP50 = IC50 for cell proliferation

SMILES	IC90	Multi-Tox Assay Max Activity (%)	IC50
C[C@@H](CO)CCn1cc([C@@H]2CC3(C[C@H](C)N2)OCC(F)(F)c2cc(Cl)sc23)nn1 (stereo in doubt) [Compound 338]	< 0.05 µM	99.0%	< 0.05 µM
C#C[C@@H]1C[C@]2(C[C@H](C)N1)OCCc1cc(Cl)sc12 [Compound 221, (2S,4S,6S)-2′-chloro-2-ethynyl-6-methyl-4′,5′-dihydrospiro[piperidine-4,7′-thieno[2,3-c]pyran]]			< 0.05 µM
C#C[C@@H]1C[C@]2(C[C@H](C)N1)OC[C@@H](O)c1cc(Cl)sc12 [Compound 222, (2′S,4S,6′S,7S)-2-chloro-2′-ethynyl-6′-methyl-spiro[4,5-dihydrothieno[2,3-c]pyran-7,4′-piperidine]-4-ol]			0.05 to 0.5 µM
C#C[C@@H]1C[C@]2(C[C@H](C)N1)OCC(F)(F)c1cc(Cl)sc12 [Compound 223, (2′S,6′S,7S)-2-chloro-2′-ethynyl-4,4-difluoro-6′-methyl-spiro[5H-thieno[2,3-c]pyran-7,4′-piperidine]]			> 0.5 µM
C[C@H]1C[C@@]2(C[C@@H](c3cn(Cc4ccc(CO)cc4)nn3)N1)OC[C@@H](O)c1cc(Cl)sc12 [Compound 224, (2′S,4S,6′S,7S)-2-chloro-2′-[1-[[4-(hydroxymethyl)phenyl]methyl]triazol-4-yl]-6′-methyl-spiro[4,5-dihydrothieno[2,3-c]pyran-7,4′-piperidine]-4-ol]			0.05 to 0.5 µM
C[C@H]1C[C@@]2(C[C@@H](c3cn(Cc4ccc(CO)cc4)nn3)N1)OCC(F)(F)c1cc(Cl)sc12 [Compound 225, (4-((4-((2S,4S,6S)-2′-chloro-4′,4′-difluoro-2-methyl-4′,5′-dihydrospiro[piperidine-4,7′-thieno[2,3-c]pyran]-6-yl)-1H-1,2,3-triazol-1-yl)methyl)phenyl)methanol]		97.0%	0.05 to 0.5 µM
COCC(O)Cn1cc([C@@H]2C[C@]3(C[C@H](C)N2)OC[C@@H](O)c2cc(Cl)sc23)nn1 (stereo partly shown) [Compound 226]		100.0%	0.05 to 0.5 µM
C[C@H]1C[C@@]2(C[C@@H](c3cn(CC4CCCCO4)nn3)N1)OC[C@@H](O)c1cc(Cl)sc12 (stereo partly shown) [Compound 227]		100.0%	0.05 to 0.5 µM
C[C@H]1C[C@@]2(C[C@@H](c3cn(CCCS(C)(=O)=O)nn3)N1)OC[C@@H](O)c1cc(Cl)sc12 [Compound 228]		100.0%	0.05 to 0.5 µM
COCCOCCn1cc([C@@H]2C[C@]3(C[C@H](C)N2)OC[C@@H](O)c2cc(Cl)sc23)nn1 [Compound 229]		98.0%	0.05 to 0.5 µM
CC(C)C(=O)NCCn1cc([C@@H]2C[C@]3(C[C@H](C)N2)OC[C@@H](O)c2cc(Cl)sc23)nn1 [Compound 230]		98.0%	0.05 to 0.5 µM
C[C@H]1C[C@@]2(C[C@@H](c3cn(Cc4ccccc4S(C)(=O)=O)nn3)N1)OC[C@@H](O)c1cc(Cl)sc12 [Compound 231]		95.0%	0.05 to 0.5 µM
C[C@H]1C[C@@]2(C[C@@H](c3cn(Cc4n[nH]c5ccccc45)nn3)N1)OC[C@@H](O)c1cc(Cl)sc12 [Compound 232]		100.0%	< 0.05 µM
C[C@H]1C[C@@]2(C[C@@H](c3cn(CC4(O)CC4)nn3)N1)OC[C@@H](O)c1cc(Cl)sc12 [Compound 233]		100.0%	0.05 to 0.5 µM
C[C@H]1C[C@@]2(C[C@@H](c3cn(Cc4ncnc5[nH]ccc45)nn3)N1)OC[C@@H](O)c1cc(Cl)sc12 [Compound 234]		100.0%	< 0.05 µM
Cc1cc(C)nc(CCn2cc([C@@H]3C[C@]4(C[C@H](C)N3)OC[C@@H](O)c3cc(Cl)sc34)nn2)c1 [Compound 235]		100.0%	< 0.05 µM
C[C@H]1C[C@@]2(C[C@@H](c3cn(Cc4ccc(C#N)nc4)nn3)N1)OC[C@@H](O)c1cc(Cl)sc12 [Compound 236]		100.0%	< 0.05 µM
Cc1noc(C)c1Cn1cc([C@@H]2C[C@]3(C[C@H](C)N2)OC[C@@H](O)c2cc(Cl)sc23)nn1 [Compound 237]		99.0%	< 0.05 µM
C[C@H]1C[C@@]2(C[C@@H](c3cn(Cc4ccc(S(C)(=O)=O)cc4)nn3)N1)OC[C@@H](O)c1cc(Cl)sc12 [Compound 238]			0.05 to 0.5 µM
C[C@H]1C[C@@]2(C[C@@H](c3cn(CC(=O)N4CCCCC4)nn3)N1)OC[C@@H](O)c1cc(Cl)sc12 [Compound 239]		97.0%	0.05 to 0.5 µM
C[C@H]1C[C@@]2(C[C@@H](c3cn(CC4(CO)CCOCC4)nn3)N1)OC[C@@H](O)c1cc(Cl)sc12 [Compound 240]		95.0%	0.05 to 0.5 µM
C[C@H]1C[C@@]2(C[C@@H](c3cn(CCS(=O)(=O)Nc4ccccc4)nn3)N1)OC[C@@H](O)c1cc(Cl)sc12 [Compound 241]	0.05 to 0.5 µM	97.0%	< 0.05 µM
C[C@H]1C[C@@]2(C[C@@H](c3cn(CC4(CO)CC4)nn3)N1)OC[C@@H](O)c1cc(Cl)sc12 [Compound 242]		97.0%	0.05 to 0.5 µM

SMILES	IC90	Multi-Tox Assay Max Activity (%)	IC50
C[C@H]1C[C@@]2(C[C@@H](c3cn(Cc4cnc5cnccn45)nn3)N1)OC[C@@H](O)c1cc(Cl)sc12 [Compound 243]		98.0%	0.05 to 0.5 µM
C[C@H]1C[C@@]2(C[C@@H](c3cn(CCO)nn3)N1)OC[C@@H](O)c1cc(Cl)sc12 [Compound 244]		100.0%	0.05 to 0.5 µM
COc1ccc(Cn2cc([C@@H]3C[C@]4(C[C@H](C)N3)OC[C@@H](O)c3cc(Cl)sc34)nn2)cc1F [Compound 245]		99.0%	< 0.05 µM
C[C@H]1C[C@@]2(C[C@@H](c3cn(C[C@@H](O)CO)nn3)N1)OC[C@@H](O)c1cc(Cl)sc12 [Compound 246]		97.0%	0.05 to 0.5 µM
C[C@H]1C[C@@]2(C[C@@H](c3cn(CC(C)(C)O)nn3)N1)OC[C@@H](O)c1cc(Cl)sc12 [Compound 247]			0.05 to 0.5 µM
C[C@H]1C[C@@]2(C[C@@H](c3cn(Cc4cncs4)nn3)N1)OC[C@@H](O)c1cc(Cl)sc12 [Compound 248]			< 0.05 µM
C[C@H]1C[C@@]2(C[C@@H](c3cn(Cc4ccc5nc(O)[nH]c5c4)nn3)N1)OC[C@@H](O)c1cc(Cl)sc12 [Compound 249]		92.0%	0.05 to 0.5 µM
C[C@H]1C[C@@]2(C[C@@H](c3cn(CC4CCC4)nn3)N1)OC[C@@H](O)c1cc(Cl)sc12 [Compound 250]		95.0%	< 0.05 µM
Cc1nccn1CCCn1cc([C@@H]2C[C@]3(C[C@H](C)N2)OC[C@@H](O)c2cc(Cl)sc23)nn1 [Compound 251]		99.0%	0.05 to 0.5 µM
C[C@H]1C[C@@]2(C[C@@H](c3cn(CCC(C)(C)O)nn3)N1)OC[C@@H](O)c1cc(Cl)sc12 [Compound 252]		100.0%	< 0.05 µM
C[C@H]1C[C@@]2(C[C@@H](c3cn(Cc4ccc(C#N)cc4)nn3)N1)OC[C@@H](O)c1cc(Cl)sc12 [Compound 253]		100.0%	< 0.05 µM
C[C@H]1C[C@@]2(C[C@@H](c3cn(CC4CCC(=O)NC4)nn3)N1)OC[C@@H](O)c1cc(Cl)sc12 (stereo partly shown) [Compound 254]		92.0%	> 0.5 µM
C[C@H]1C[C@@]2(C[C@@H](c3cn(CC#N)nn3)N1)OC[C@@H](O)c1cc(Cl)sc12 [Compound 255]		100.0%	0.05 to 0.5 µM
CC(CO)Cn1cc([C@@H]2C[C@]3(C[C@H](C)N2)OC[C@@H](O)c2cc(Cl)sc23)nn1 (stereo partly shown) [Compound 256]		96.0%	0.05 to 0.5 µM
CCOCCn1cc([C@@H]2C[C@]3(C[C@H](C)N2)OC[C@@H](O)c2cc(Cl)sc23)nn1 [Compound 257]			< 0.05 µM
CNC(=O)C(C)Cn1cc([C@@H]2C[C@]3(C[C@H](C)N2)OC[C@@H](O)c2cc(Cl)sc23)nn1 (stereo partly shown) [Compound 258]		98.0%	0.05 to 0.5 µM
C[C@H]1C[C@@]2(C[C@@H](c3cn(Cc4ccc(O)cc4)nn3)N1)OC[C@@H](O)c1cc(Cl)sc12 [Compound 259]		100.0%	0.05 to 0.5 µM
Cc1cccc(OCC(O)Cn2cc([C@@H]3C[C@]4(C[C@H](C)N3)OC[C@@H](O)c3cc(Cl)sc34)nn2)c1 (stereo partly shown) [Compound 260]		99.0%	< 0.05 µM
Cc1ccccc1C(O)Cn1cc([C@@H]2C[C@]3(C[C@H](C)N2)OC[C@@H](O)c2cc(Cl)sc23)nn1 (stereo partly shown) [Compound 261]		100.0%	0.05 to 0.5 µM
C[C@H]1C[C@@]2(C[C@@H](c3cn(CCc4ccncn4)nn3)N1)OC[C@@H](O)c1cc(Cl)sc12 [Compound 262]		99.0%	0.05 to 0.5 µM
COC(=O)Cn1cc([C@@H]2C[C@]3(C[C@H](C)N2)OC[C@@H](O)c2cc(Cl)sc23)nn1 [Compound 263]			> 0.5 µM
CC(CO)CCn1cc([C@@H]2C[C@]3(C[C@H](C)N2)OC[C@@H](O)c2cc(Cl)sc23)nn1 (stereo partly shown) [Compound 264]		100.0%	< 0.05 µM
C[C@H]1C[C@@]2(C[C@@H](c3cn(CC4CCS(=O)(=O)C4)nn3)N1)OC[C@@H](O)c1cc(Cl)sc12 (stereo partly shown) [Compound 265]		99.0%	0.05 to 0.5 µM

— patent publication US12421249B2, “Inhibitors of APOL1 and methods of using same” (Vertex Pharmaceuticals Incorporated, priority 2020, dated 2025)
